From ChEMBL document CHEMBL1201862, “PubChem BioAssay data set” (2004)
Activity calls are given as the source filed them.

Tests used:
[1] = target: 5-hydroxytryptamine receptor 5A (Homo sapiens, UniProt P47898); assay: Counterscreen for agonists of OPRM1-OPRD1 heterodimerization: luminescence-based cell-based high throughput dose response assay to identify agonists of 5-hydroxytryptamine (serotonin) 5A receptor (HTR5A). [Related pubchem assays (depositor defined):AID504326, AID504355, AID504692, AID504904, AID504905]; assay type: functional
Chain of 5-hydroxytryptamine receptor 5A (P47898 whole entry): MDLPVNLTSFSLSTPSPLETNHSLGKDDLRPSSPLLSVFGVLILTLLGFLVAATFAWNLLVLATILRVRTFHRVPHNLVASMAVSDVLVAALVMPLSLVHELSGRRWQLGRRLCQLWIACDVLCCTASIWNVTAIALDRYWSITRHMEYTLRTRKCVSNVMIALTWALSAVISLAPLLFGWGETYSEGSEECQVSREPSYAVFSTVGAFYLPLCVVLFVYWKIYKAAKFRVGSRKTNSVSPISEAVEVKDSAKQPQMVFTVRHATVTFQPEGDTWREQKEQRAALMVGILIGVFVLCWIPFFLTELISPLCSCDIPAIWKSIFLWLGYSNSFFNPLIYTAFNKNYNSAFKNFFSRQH

[2] = target: Delta-type opioid receptor (Homo sapiens, UniProt P41143); assay: Counterscreen for agonists of heterodimerization of the mu 1 (OPRM1) and delta 1 (OPRD1) opioid receptors: Luminescence-based cell-based high throughput dose response assay to identify agonists of OPRD1 homodimerization. [Related pubchem assays (depositor defined):AID504326, AID504355, AID504692, AID504904, AID504905]; assay type: functional
Chain of Delta-type opioid receptor (P41143 whole entry): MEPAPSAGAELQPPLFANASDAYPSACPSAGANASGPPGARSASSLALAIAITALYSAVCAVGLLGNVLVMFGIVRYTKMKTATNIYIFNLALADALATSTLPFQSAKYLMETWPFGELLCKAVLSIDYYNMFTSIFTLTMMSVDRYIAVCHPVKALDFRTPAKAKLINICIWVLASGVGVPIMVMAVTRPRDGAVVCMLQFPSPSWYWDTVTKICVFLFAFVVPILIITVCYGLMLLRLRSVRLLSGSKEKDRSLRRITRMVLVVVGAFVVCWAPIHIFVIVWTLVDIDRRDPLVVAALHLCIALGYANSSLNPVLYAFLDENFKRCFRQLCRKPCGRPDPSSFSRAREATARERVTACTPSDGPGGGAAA

Mu-type opioid receptor = Mu-type opioid receptor (Homo sapiens, UniProt P35372); assay: Counterscreen for agonists of heterodimerization of the mu 1 (OPRM1) and delta 1 (OPRD1) opioid receptors: Luminescence-based cell-based high throughput dose response assay to identify agonists of OPRM1 homodimerization.; assay type: functional;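 also: U2OS cells expressing OPRM1 and beta-arrestin as split beta-galactosidase partners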
Chain of Mu-type opioid receptor (P35372 whole entry): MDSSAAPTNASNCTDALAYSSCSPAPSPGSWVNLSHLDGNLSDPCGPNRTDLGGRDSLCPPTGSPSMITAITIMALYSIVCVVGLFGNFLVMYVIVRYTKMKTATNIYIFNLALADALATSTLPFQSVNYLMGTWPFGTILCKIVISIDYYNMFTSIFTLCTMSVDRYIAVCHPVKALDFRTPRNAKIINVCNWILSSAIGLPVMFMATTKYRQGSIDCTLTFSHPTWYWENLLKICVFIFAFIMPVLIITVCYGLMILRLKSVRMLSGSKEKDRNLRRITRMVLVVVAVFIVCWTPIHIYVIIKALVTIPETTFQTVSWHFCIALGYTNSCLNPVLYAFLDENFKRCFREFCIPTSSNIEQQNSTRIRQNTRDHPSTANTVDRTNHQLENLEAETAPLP

[3] = target: T1, Ubiquitin-conjugating enzyme E2 N (Homo sapiens, UniProt P61088); assay type: functional;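 also: Dose-response confirmation in a TR-FRET assay detecting UBC13-driven polyubiquitin chain formation, inhibition measured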
T1 sequence (P61088 whole entry): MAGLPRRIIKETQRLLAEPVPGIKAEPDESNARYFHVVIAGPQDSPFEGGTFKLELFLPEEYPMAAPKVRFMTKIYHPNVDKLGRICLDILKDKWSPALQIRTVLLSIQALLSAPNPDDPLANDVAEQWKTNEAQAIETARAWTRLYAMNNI

[4] = loss of viability in HepG2 cells – cell-based, CellTiter-Glo, cherry-picked, cytotoxicity control for Shn3 inhibitor project, dose response (AID 624134); assay type: functional
cells [5] = assay type: functional, cell-based
Trypsin = Trypsin (Sus scrofa, UniProt P00761); assay: trypsin protease activity blockade – biochemical, quenched peptide fluorescence, cherry-pick, selectivity assay for Rce1 protease inhibitor project, dose response (AID 488789)
Chain of Trypsin (P00761 whole entry): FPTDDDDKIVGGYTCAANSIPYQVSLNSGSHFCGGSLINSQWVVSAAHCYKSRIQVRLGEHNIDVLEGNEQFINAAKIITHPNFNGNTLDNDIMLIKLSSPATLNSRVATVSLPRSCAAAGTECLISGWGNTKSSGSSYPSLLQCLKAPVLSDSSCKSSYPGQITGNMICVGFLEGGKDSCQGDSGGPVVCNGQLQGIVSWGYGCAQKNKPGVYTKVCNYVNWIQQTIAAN

[6] = non-specific 3'UTR reporter inhibition in Clone20-Shn3RL – cell-based, Renilla luciferase, cherry-picked, counter-screen for Shn3 inhibitor project, dose response (AID 624133); assay type: functional
CAAX prenyl protease 2 [7] = target: T2, CAAX prenyl protease 2 (Saccharomyces cerevisiae S288c, UniProt Q03530); assay type: biochemical
T2 sequence (Q03530 whole entry): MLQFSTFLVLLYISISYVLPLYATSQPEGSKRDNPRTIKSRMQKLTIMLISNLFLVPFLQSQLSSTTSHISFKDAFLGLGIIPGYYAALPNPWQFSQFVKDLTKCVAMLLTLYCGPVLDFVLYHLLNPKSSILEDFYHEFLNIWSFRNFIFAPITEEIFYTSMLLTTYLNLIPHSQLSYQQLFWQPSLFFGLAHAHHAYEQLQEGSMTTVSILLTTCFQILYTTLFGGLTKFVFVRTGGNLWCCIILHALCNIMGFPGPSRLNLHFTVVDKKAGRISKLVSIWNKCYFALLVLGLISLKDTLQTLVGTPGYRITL

CAAX prenyl protease 2 [8] = target: T3, CAAX prenyl protease 2 (Homo sapiens, UniProt Q9Y256); assay: inhibition of Ras-converting CAAX protease Rce1 – biochemical, yeast membranes, quenched-peptide fluorescence, cherry-pick, dose response (AID 588849)
T3 sequence (Q9Y256 whole entry): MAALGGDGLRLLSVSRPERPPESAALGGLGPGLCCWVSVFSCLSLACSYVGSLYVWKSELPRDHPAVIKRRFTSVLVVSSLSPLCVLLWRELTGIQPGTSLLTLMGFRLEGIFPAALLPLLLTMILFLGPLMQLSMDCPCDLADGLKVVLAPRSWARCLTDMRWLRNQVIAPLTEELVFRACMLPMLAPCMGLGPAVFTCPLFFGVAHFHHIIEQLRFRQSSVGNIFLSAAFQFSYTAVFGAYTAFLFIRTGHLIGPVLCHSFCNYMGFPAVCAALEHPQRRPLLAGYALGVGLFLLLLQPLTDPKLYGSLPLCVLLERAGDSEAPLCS

[9] = target: T4, Replicative DNA helicase DnaB (Mycobacterium tuberculosis, UniProt P9WMR3); assay: DnaB intein splicing inhibitors, dose response, biochemical, cell-free fluorescence (AID 449749); assay type: functional
T4 sequence (P9WMR3 whole entry): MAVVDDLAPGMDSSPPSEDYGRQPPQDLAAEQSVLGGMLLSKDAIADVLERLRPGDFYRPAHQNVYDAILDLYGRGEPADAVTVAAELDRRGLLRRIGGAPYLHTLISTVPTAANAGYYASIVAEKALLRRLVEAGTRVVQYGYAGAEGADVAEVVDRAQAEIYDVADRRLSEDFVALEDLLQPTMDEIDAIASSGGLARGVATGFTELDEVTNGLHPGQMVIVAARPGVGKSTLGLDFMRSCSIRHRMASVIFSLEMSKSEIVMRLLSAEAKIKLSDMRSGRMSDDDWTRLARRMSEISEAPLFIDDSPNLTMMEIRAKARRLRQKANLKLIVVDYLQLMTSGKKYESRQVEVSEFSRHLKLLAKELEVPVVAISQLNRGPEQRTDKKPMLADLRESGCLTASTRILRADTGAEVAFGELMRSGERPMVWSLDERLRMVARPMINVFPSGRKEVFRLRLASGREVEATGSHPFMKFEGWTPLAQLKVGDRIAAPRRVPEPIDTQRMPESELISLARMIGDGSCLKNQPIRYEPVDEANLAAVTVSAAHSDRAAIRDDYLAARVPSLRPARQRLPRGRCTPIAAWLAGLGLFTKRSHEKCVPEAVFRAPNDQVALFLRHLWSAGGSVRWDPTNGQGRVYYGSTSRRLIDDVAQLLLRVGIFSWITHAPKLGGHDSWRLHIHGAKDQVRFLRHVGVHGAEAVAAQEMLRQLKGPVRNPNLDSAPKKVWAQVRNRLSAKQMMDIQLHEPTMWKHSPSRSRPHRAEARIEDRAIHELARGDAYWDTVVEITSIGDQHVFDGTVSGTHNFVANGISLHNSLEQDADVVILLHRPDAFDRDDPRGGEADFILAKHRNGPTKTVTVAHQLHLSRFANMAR

cells [10] = assay type: functional, cell-based; remark: listed apart in the source
Protein RecA = target: T5, Protein RecA (Mycobacterium tuberculosis, UniProt P9WHJ3); assay: Fluorescence Cell-Free Homogeneous Dose Retest to Identify Inhibitors of RecA-Intein Splicing Activity. [Related pubchem assays (depositor defined):AID2097, AID2223, AID489010, AID492950]; assay type: functional
T5 sequence (P9WHJ3 whole entry): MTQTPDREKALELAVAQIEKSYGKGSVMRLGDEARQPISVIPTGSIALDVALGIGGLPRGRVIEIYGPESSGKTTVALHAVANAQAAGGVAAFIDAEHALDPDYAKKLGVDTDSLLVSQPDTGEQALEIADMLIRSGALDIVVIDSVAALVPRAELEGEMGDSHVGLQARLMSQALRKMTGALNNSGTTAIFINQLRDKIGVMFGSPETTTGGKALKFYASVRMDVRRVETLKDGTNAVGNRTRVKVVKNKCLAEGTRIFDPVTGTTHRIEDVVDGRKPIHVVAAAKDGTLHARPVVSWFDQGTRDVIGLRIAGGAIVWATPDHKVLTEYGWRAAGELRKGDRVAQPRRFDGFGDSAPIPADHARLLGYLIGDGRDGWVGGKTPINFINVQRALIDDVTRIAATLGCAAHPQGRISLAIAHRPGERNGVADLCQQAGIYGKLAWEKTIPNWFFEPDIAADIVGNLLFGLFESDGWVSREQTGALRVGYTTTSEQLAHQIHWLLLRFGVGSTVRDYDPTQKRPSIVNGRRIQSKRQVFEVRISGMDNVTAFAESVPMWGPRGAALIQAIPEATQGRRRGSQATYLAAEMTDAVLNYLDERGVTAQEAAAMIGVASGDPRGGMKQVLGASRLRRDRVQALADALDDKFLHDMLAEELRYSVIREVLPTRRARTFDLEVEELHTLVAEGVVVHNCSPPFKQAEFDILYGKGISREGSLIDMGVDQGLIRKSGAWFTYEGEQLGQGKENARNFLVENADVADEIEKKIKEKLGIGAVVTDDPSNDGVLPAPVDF

[11] = reduction of Shn3 3'UTR-driven luciferase in osteoblasts – cell-based, Clone20 osteoblasts, firefly luciferase, cherry-picked, dose response (AID 624132); assay type: functional;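 also: firefly luciferase luminescence from reporter carrying the Shn3 3'UTR in osteoblasts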
[12] = target: T6, Short transient receptor potential channel 4 (Mus musculus, UniProt Q9QUQ5); assay: calcium entry via TRPC4 opening agents – cell-based, HEK293 TRPC4/mu-opioid, Fluo-4 calcium, dose response (AID 434937); assay type: functional
T6 sequence (Q9QUQ5 whole entry): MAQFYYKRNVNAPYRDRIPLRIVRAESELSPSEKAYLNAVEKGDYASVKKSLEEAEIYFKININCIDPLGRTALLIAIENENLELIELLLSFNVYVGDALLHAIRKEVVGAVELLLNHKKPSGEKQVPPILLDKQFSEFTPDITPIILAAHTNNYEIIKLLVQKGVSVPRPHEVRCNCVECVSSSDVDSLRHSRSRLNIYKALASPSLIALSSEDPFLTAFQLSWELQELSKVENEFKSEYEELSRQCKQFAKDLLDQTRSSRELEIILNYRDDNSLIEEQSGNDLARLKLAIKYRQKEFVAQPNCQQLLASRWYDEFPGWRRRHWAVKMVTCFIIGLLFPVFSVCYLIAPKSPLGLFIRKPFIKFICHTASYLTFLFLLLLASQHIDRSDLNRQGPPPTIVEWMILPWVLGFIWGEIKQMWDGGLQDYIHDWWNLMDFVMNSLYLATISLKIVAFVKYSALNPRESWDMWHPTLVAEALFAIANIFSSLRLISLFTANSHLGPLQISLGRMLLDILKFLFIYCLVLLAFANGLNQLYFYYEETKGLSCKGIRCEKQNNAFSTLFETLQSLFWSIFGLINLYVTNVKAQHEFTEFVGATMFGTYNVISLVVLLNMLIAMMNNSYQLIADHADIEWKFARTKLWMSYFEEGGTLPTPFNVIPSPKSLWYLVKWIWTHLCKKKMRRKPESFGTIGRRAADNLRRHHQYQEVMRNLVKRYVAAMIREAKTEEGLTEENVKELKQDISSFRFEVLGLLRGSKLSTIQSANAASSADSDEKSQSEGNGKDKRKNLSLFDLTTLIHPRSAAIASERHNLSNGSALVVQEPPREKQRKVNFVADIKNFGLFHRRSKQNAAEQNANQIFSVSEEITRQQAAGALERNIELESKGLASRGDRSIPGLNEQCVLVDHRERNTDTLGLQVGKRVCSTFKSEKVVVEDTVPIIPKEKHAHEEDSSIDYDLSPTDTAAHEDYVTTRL

[13] = target: T7, Dual specificity protein phosphatase 6 (Rattus norvegicus, UniProt Q64346)
T7 sequence (Q64346 whole entry): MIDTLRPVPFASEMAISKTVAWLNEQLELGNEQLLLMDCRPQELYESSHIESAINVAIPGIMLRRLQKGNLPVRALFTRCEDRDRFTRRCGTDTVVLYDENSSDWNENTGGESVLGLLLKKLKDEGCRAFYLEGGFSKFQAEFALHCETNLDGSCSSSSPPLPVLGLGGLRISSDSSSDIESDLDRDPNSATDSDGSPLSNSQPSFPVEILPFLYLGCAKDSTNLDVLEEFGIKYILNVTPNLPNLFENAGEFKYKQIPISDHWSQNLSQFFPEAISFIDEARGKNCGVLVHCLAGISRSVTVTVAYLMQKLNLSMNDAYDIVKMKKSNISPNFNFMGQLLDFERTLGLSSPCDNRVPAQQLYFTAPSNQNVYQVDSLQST

[14] = target: T7, Dual specificity protein phosphatase 6; assay type: functional
[15] = target: Glyceraldehyde-3-phosphate dehydrogenase (Homo sapiens, UniProt P04406)
Chain of Glyceraldehyde-3-phosphate dehydrogenase (P04406 whole entry): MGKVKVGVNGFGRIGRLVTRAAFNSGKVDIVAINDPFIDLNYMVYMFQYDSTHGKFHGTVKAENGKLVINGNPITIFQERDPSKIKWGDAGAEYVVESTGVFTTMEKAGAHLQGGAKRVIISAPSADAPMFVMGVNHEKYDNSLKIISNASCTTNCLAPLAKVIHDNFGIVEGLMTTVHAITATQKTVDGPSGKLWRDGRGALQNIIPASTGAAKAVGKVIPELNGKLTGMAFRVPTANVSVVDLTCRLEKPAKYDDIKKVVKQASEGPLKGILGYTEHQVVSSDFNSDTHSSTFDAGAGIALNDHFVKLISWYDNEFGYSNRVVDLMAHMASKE

[16] = target: T8, Tyrosine-protein phosphatase non-receptor type 7 (Homo sapiens, UniProt P35236); assay type: functional
T8 sequence (P35236 whole entry): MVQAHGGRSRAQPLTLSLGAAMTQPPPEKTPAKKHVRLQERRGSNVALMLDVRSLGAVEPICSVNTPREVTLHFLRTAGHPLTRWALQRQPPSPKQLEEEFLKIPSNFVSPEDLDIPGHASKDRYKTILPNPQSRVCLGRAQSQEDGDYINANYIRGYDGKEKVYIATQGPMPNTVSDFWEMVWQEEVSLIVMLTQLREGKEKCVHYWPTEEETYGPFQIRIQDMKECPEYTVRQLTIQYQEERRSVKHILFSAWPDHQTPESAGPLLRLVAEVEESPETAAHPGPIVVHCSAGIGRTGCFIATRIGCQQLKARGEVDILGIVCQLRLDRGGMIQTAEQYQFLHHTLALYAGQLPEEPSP

SMILES	EC50 [1]	EC50 [2]	EC50 (Mu-type opioid receptor)	IC50 [13]	IC50 [14]	IC50 [15]	IC50 [16]	other results
CC[C@@H](C)[C@@H]1CN([C@@H](CN2CCC[C@H]2CN2C(N)=NC[C@H]2C(C)C)C(C)C)C(=N)N1CCc1ccc(Cl)c(Cl)c1	> 92.5 µM (inactive)	> 92.5 µM (inactive)	10.9 µM (inactive)	–	–	–	–	IC50 [3]: > 20 µM (inactive)
COc1ccccc1-c1cc(C(F)(F)F)nc(S(=O)(=O)CCCC(=O)NCc2ccc(F)cc2)n1	–	–	–	–	–	–	–	AC50 [4]: > 70 µM (inactive); EC50 (cells [5]): > 350 µM (not active); AC50 (Trypsin): 2.3 µM (active); AC50 [6]: 23.6 µM (active); AC50 (CAAX prenyl protease 2 [7]): 7.9 µM (active); AC50 (CAAX prenyl protease 2 [8]): 10.8 µM (active); AC50 [9]: 5.72 µM (active); EC50 (cells [10]): > 350 µM (not active); EC50 (Protein RecA): 3.61 µM (active); AC50 [11]: 4.43 µM (active)
CN(C)c1ccc(C(CNC(=O)Cc2cccc3ccccc23)N(C)C)cc1 (stereo not given)	> 92.4 µM (inactive)	> 92.4 µM (inactive)	> 92.4 µM (inactive)	–	–	–	–	EC50 [12]: 0.944 µM (active)
Cn1c(=O)n(CC(N)=O)c(=O)n(-c2ccccc2)c1=O	–	–	–	> 100 µM (inactive)	> 100 µM (inactive)	> 100 µM (not active)	> 100 µM (not active)	–
Clc1cccc(Cl)c1COc1nnc(-c2cccs2)c(-c2cccs2)n1	–	–	–	> 100 µM (inactive)	> 100 µM (inactive)	> 100 µM (not active)	> 100 µM (not active)	–
COCCCNc1nc(=O)n(-c2ccc(F)cc2)c(=O)[nH]1	–	–	–	> 100 µM (inactive)	> 100 µM (inactive)	> 100 µM (not active)	> 100 µM (not active)	–
